± gives the standard deviation of the averaged measurements.
Assay: TIMS collisional cross section (CCS, N2) of the lipid ion; higher = larger ion cross section
Conditions: ionization mode: positive, one isomer drawn

TIMS collisional cross section (sample type: HeLa) [Å²]	TIMS collisional cross section (sample type: Liver) [Å²]	TIMS collisional cross section (sample type: plasma) [Å²]	SMILES
301.7	301.4		CCCCCCCCCCCCCCCC(=O)OC[C@@H](COC(=O)CCCCCCCCCCCC)OC(=O)CCCCCCCCCCCCCC [TG 13:0_15:0_16:0] (ion (formula + adduct): [C47H90O6+NH4] 1+)
286.4			CC/C=C\C/C=C\C/C=C\C/C=C\C/C=C\CCCC(=O)O[C@H](COC(=O)CCCCCCC/C=C\CCCCCCC)COP(=O)([O-])OCC[N+](C)(C)C [PC 17:1@_20:5] (ion (formula + adduct): [C45H78NO8P+H] 1+)
290.3			CC/C=C\C/C=C\C/C=C\C/C=C\C/C=C\CCCC(=O)O[C@H](COC(=O)CCC/C=C\C/C=C\C/C=C\C/C=C\CCCCC)COP(=O)([O-])OCC[N+](C)(C)C [PC 20:4_20:5] (ion (formula + adduct): [C48H78NO8P+H] 1+)
279.1	280 ± 0.42		CCCCC/C=C\C/C=C\C/C=C\C/C=C\CCCC(=O)OC[C@H](COP(=O)(O)OCCN)OC(=O)CCCCCCC/C=C\CCCCCCCC [PE 20:4_18:1] (ion (formula + adduct): [C43H76NO8P+H] 1+)
279			CCCCCCCC/C=C\CCCCCCCC(=O)OC[C@H](COP(=O)(O)OCCN)OC(=O)CCCCCCCCCCCCCCCC [PE 18:1_17:0@] (ion (formula + adduct): [C40H78NO8P+H] 1+)
319.9	320.7	320.25 ± 0.35	CCCCCCCCCCCCCCCCCC(=O)OC[C@@H](COC(=O)CCCCCCCCCCCCCCC)OC(=O)CCCCCCCCCCCCCCC [TG 16:0_16:0_18:0] (ion (formula + adduct): [C53H102O6+NH4] 1+)
	305.2		CC/C=C\C/C=C\C/C=C\C/C=C\C/C=C\C/C=C\CCC(=O)OC[C@@H](COC(=O)CCCCCCCCCCCC)OC(=O)CCCCCCCCCCCCC [TG 13:0_14:0_22:6] (ion (formula + adduct): [C52H88O6+NH4] 1+)
315.1	313.9	314.6	CCCCC/C=C\C/C=C\CCCCCCCC(=O)OC[C@@H](COC(=O)CCCCCCC/C=C\CCCCCC)OC(=O)CCCCCCC/C=C\CCCCCCC [TG 16:1_17:1_18:2] (ion (formula + adduct): [C54H96O6+NH4] 1+)
	301.8		CCCCCCCCCCCCCCCCC(=O)OC[C@@H](COC(=O)CCCCCCCCCCCC)OC(=O)CCCCCCCCCCCCC [TG 13:0_14:0_17:0] (ion (formula + adduct): [C47H90O6+NH4] 1+)
	254.2		CC/C=C\C/C=C\C/C=C\CCCCCCCC(=O)O[C@@H](CO)COC(=O)CCCCCCC/C=C\C/C=C\CCCCC [DG 18:2_18:3_0:0] (ion (formula + adduct): [C39H66O5+NH4] 1+)
	301.1		CCCCC/C=C\C/C=C\CCCCCCCC(=O)OC[C@@H](COC(=O)CCCCCCCCCCC)OC(=O)CCCCCCC/C=C\CCCCCC [TG 12:0_16:1_18:2] (ion (formula + adduct): [C49H88O6+NH4] 1+)
295.3			CCCCCCCCCCCCCCCC(=O)OC[C@@H](COC(=O)CCCCCCCCCCCC)OC(=O)CCCCCCCCCCCC [TG 13:0_13:0_16:0] (ion (formula + adduct): [C45H86O6+NH4] 1+)
		311	CCCCC/C=C\C/C=C\CCCCCCCC(=O)OC[C@@H](COC(=O)CCCCCCC/C=C\CCCCC)OC(=O)CCCCCCCCCCCCCCC [TG 15:1_16:0_18:2] (ion (formula + adduct): [C52H94O6+NH4] 1+)
